In US20240025893A1, “PYRIMIDINE-AND NITROGEN-CONTAINING BICYCLIC COMPOUND” (Asahi Kasei Pharma Corporation, priority 2020, published 2024):

What was measured:
[1] = biological target: human IRAK-4 (Homo sapiens (Human), UniProt Q9NWZ3); assay: Measurement of human IRAK-4 inhibitory activity (TR-FRET, peptide substrate phosphorylation, 10 μM ATP); type: biochemical; conditions: 1 nM IRAK-4, 10 μM ATP, 23° C., 30 minutes; average values
In short: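 With 1 nM IRAK-4, 0.5 μM biotinylated peptide and 10 μM ATP, compound incubated 30 min at 23 °C in 50 mM HEPES pH 7.2 with Mg2+/Mn2+. Stopped with EDTA plus europium-cryptate anti-phosphopeptide antibody and streptavidin-XL665, 60 min at 23 °C. Activity taken as the 665/620 nm TR-FRET ratio.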

[2] = system: LPS-stimulated TNFα production in THP-1 cells; assay: LPS-stimulated TNFα production inhibition test using human acute monocytic leukemia cell strain THP-1; type: cell-based; conditions: LPS 2.5 ng/mL, average values
In short: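 Readout was HTRF-measured TNFα in supernatants, calibrated against a standard curve, after LPS challenge (2.5 ng/mL final, 4 h) of THP-1 cells pretreated 1 h at 37 °C with compound. Unstimulated wells defined 100% suppression and vehicle wells 0%. IC50 was fitted with a 4-parameter logistic model.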

Sequence of human IRAK-4 (Q9NWZ3 whole entry): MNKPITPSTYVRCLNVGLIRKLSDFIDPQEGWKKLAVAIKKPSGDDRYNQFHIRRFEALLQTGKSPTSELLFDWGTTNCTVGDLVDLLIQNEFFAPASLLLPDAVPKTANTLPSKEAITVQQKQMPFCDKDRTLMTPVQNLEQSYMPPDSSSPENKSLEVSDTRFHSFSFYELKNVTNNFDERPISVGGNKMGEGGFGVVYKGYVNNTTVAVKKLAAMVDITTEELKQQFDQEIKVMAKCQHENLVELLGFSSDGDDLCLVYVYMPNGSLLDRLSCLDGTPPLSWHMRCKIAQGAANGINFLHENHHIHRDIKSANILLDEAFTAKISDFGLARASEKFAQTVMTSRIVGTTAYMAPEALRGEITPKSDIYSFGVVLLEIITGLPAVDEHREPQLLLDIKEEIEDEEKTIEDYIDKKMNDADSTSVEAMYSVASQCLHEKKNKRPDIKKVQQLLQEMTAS

SMILES	IC50 [1] [nM]	IC50 ([2]; Homo sapiens, 4 hours) [nM]	IC50 ([2]; Homo sapiens, THP-1, 4 h) [nM]	IC50 ([2]; 4 hours) [nM]
O=C(Nc1nc2ccc(-c3cnc(CO[C@H]4CCC[C@@H]4O)nc3)cc2s1)C1CC(N2CC3CC(C2)O3)C1 (some centres unmarked) [b-02-09]	2.42	142	–	–
C[C@@H]1CN(C2CC(C(=O)Nc3nc4ccc(-c5cnc(CO[C@H]6CCC[C@@H]6O)nc5)cc4s3)C2)CCO1 (some centres unmarked) [b-02-08]	2.76	–	113	–
COc1c(-c2cnc(CO[C@H]3CCC[C@@H]3O)nc2)ccc2nc(NC(=O)[C@H]3C[C@@H](N4CCN(C(=O)c5ccnc(C)c5)C[C@@H]4C)C3)sc12 [c-03-02, (1R,3s)-N-(6-(2-((((1S,2S)-2-Hydroxycyclopentyl)oxy)methyl)pyrimidin-5-yl)-7-methoxybenzo[d]thiazol-2-yl)-3-((S)-2-methyl-4-(2-methylisonicotinoyl)piperazin-1-yl)cyclobutane-1-carboxamide]	2.36	–	13	–
O=C(Nc1nc2ccc(-c3cnc(CO[C@H]4CCC[C@@H]4O)nc3)cc2s1)C1CC(N2CC(F)C2)C1 (some centres unmarked) [b-01-02]	3.33	–	–	177
C[C@H]1CN(C(=O)C2CCOC2)CCN1[C@H]1C[C@@H](C(=O)Nc2nc3ccc(-c4cnc(CO[C@H]5CCC[C@@H]5O)nc4)cc3s2)C1 (some centres unmarked) [b-04-07]	2.6	–	60	–
C[C@H]1CN(C(=O)c2ccccn2)CCN1[C@H]1C[C@@H](C(=O)Nc2nc3ccc(-c4cnc(CO[C@H]5CCC[C@@H]5O)nc4)cc3s2)C1 [b-04-11]	1.89	–	38	–
CCCO[C@H]1C[C@@H](C(=O)Nc2nc3ccc(-c4cnc(CO[C@H]5CCC[C@@H]5O)nc4)cc3s2)C1 [d-04-03]	2.22	–	162	–
CCCOCc1ncc(-c2ccc3nc(NC(=O)[C@H]4C[C@@H](N5CCN(C(=O)c6ccncc6Cl)C[C@@H]5C)C4)sc3c2)cn1 [b-04-43]	0.65	–	96	–
C[C@H]1CN(C(=O)c2cc(F)ccn2)CCN1[C@H]1C[C@@H](C(=O)Nc2nc3ccc(-c4cnc(CO[C@H]5CCC[C@@H]5O)nc4)cc3s2)C1 [b-04-46]	0.58	–	22	–
O=C(Nc1nc2ccc(-c3cnc(CO[C@H]4CCC[C@@H]4O)nc3)cc2s1)C1CC(N2CCC(F)CC2)C1 (some centres unmarked) [b-02-11]	2.87	–	152	–
O=C(Nc1cc2cc(-c3cnc(CO[C@H]4CCC[C@@H]4O)nc3)ccn2n1)[C@@H]1C[C@H]1F [e-01-02]	2.48	–	225	–
COc1cccc(C(=O)N2CCN([C@H]3C[C@@H](C(=O)Nc4nc5ccc(-c6cnc(CO[C@H]7CCC[C@@H]7O)nc6)cc5s4)C3)[C@@H](C)C2)n1 [b-04-20]	1.12	–	39	–
CCCOCc1ncc(-c2ccn3nc(NC(=O)[C@H]4C[C@@H](N5CCN(C(=O)c6ccc(Cl)cn6)C[C@@H]5C)C4)cc3c2)cn1 [e-02-22]	1.29	–	106	–
Cc1cc(C(=O)N2CCN([C@H]3C[C@@H](C(=O)Nc4nc5ccc(-c6cnc(CO[C@H]7CCC[C@@H]7O)nc6)cc5s4)C3)[C@@H](C)C2)ccn1 [b-04-02, (1R,3s)-N-(6-(2-((((1S,2S)-2-Hydroxycyclopentyl)oxy)methyl)pyrimidin-5-yl)benzo[d]thiazol-2-yl)-3-((S)-2-methyl-4-(2-methylisonicotinoyl)piperazin-1-yl)cyclobutane-1-carboxamide]	1.4	–	21	–
CCCOCc1ncc(-c2ccc3nc(NC(=O)[C@H]4C[C@@H](N5CCN(C(=O)C6CCOC6)C[C@@H]5C)C4)sc3c2)cn1 (some centres unmarked) [b-04-25]	0.88	–	71	–
C[C@H]1CN(C2CC(C(=O)Nc3nc4ccc(-c5cnc(CO[C@H]6CCC[C@@H]6O)nc5)cc4s3)C2)CCO1 (some centres unmarked) [b-02-07]	2.28	–	164	–
O=C(Nc1nc2ccc(-c3cnc(CO[C@H]4CCC[C@@H]4O)nc3)cc2s1)C1CC(NC23CC(C2)C3)C1 (some centres unmarked) [b-02-29]	2.43	–	124	–
O=C(Nc1nc2ccc(-c3cnc(CO[C@H]4CCC[C@@H]4O)nc3)cc2s1)[C@H]1C[C@H]1F [a-01-02]	1.98	–	180	–
CC(C)C[C@H]1COCCN1C1CC(C(=O)Nc2nc3ccc(-c4cnc(CO[C@H]5CCC[C@@H]5O)nc4)cc3s2)C1 (some centres unmarked) [b-02-67]	2.36	–	91	–
